This assay deals with L1210 leukemia ip in BDF1 mice, survival T/C. Briefly: NCI In Vivo Anticancer Drug Screen. Data for tumor model L1210 Leukemia (intraperitoneal) in B6D2F1 (BDF1) mice. As to conditions: endpoint: mean survival time, higher = longer survival. Summed up:
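Ratio derived from survival: compound-dosed mice over vehicle-dosed mice, all bearing a transplantable tumor.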

[1] abbreviates: dose: 100.0 mg/kg/injection, schedule: Q04DX003 (ip), vehicle: saline.
[2] abbreviates: dose: 200.0 mg/kg/injection, schedule: Q04DX003 (ip), vehicle: saline.
Setting [3] is: dose: 100.0 mg/kg/injection, schedule: Q04DX003 (ip), vehicle: saline with Tween-80.
Setting [4] is: dose: 100.0 mg/kg/injection, schedule: Q04DX002 (ip), vehicle: saline with Tween-80.
Setting [5] is: dose: 200.0 mg/kg/injection, schedule: Q04DX002 (ip), vehicle: saline with Tween-80.
The mark [6] stands for this setting: dose: 25.0 mg/kg/injection, schedule: Q01DX009 (ip), vehicle: saline.
The mark [7] stands for this setting: dose: 50.0 mg/kg/injection, schedule: Q01DX009 (ip), vehicle: saline.
The mark [8] stands for this setting: dose: 100.0 mg/kg/injection, schedule: Q01DX009 (ip), vehicle: saline.

The source of these data is PubChem BioAssay AID248 (DTP/NCI, 2004).

“And” between values parts separate entries of the source, which are not always exact repeats. Identical values can stand only once. Toxic doses and inconclusive results are not listed.

In the case of `O=C1c2ccccc2C(=O)C2OC12` (configuration not stated), the T/C is 97 % of control (dose: 3.0 mg/kg/injection, schedule: Q01DX009 (ip), vehicle: Klucel (hydroxypropylcellulose) (HPC)); 93 % of control (dose: 6.0 mg/kg/injection, schedule: Q01DX009 (ip), vehicle: Klucel (hydroxypropylcellulose) (HPC)); 97 % of control (dose: 12.0 mg/kg/injection, schedule: Q01DX009 (ip), vehicle: Klucel (hydroxypropylcellulose) (HPC)); 102 % of control (dose: 12.5 mg/kg/injection, schedule: Q04DX002 (ip), vehicle: Klucel (hydroxypropylcellulose) (HPC)); 94 % of control (dose: 25.0 mg/kg/injection, schedule: Q04DX002 (ip), vehicle: Klucel (hydroxypropylcellulose) (HPC)); 98 % of control (dose: 50.0 mg/kg/injection, schedule: Q01DX001 (ip), vehicle: carboxymethylcellulose (CMC)). Moreover, the T/C (dose: 50.0 mg/kg/injection, schedule: Q04DX002 (ip), vehicle: Klucel (hydroxypropylcellulose) (HPC)) is 97 % of control; the T/C (dose: 100.0 mg/kg/injection, schedule: Q01DX001 (ip), vehicle: carboxymethylcellulose (CMC)) is 109 % of control; the T/C (dose: 200.0 mg/kg/injection, schedule: Q01DX001 (ip), vehicle: carboxymethylcellulose (CMC)) is 98 % of control; the T/C (dose: 400.0 mg/kg/injection, schedule: Q01DX001 (ip), vehicle: carboxymethylcellulose (CMC)) is 104 % of control.
As for `CC1CCCC(C[N+](C)(C)C)C1=O` (configuration not stated), the T/C by setting is: under setting [1], 93 % of control; under setting [2], 101 % of control.
In the case of `CCOC(=O)c1cnc(SC)nc1N/N=C/c1ccccc1`, the T/C runs as follows: (dose: 100.0 mg/kg/injection, schedule: Q04DX003 (ip), vehicle: Klucel (hydroxypropylcellulose) (HPC)) 100 % of control; (dose: 200.0 mg/kg/injection, schedule: Q04DX003 (ip), vehicle: Klucel (hydroxypropylcellulose) (HPC)) 101 % of control; (dose: 400.0 mg/kg/injection, schedule: Q04DX003 (ip), vehicle: Klucel (hydroxypropylcellulose) (HPC)) 103 % of control.
For `CCN(CC)/N=N/c1[nH]ncc1C(N)=O`, the T/C (dose: 88.0 mg/kg/injection, schedule: Q01DX009 (ip), vehicle: saline with Tween-80) was 119 % of control; the T/C (dose: 100.0 mg/kg/injection, schedule: Q01DX001 (ip), vehicle: saline with Tween-80) is 111 % of control; the T/C under setting [3] was 101 % of control; the T/C (dose: 200.0 mg/kg/injection, schedule: Q01DX001 (ip), vehicle: saline with Tween-80) is 103 % of control; the T/C (dose: 200.0 mg/kg/injection, schedule: Q04DX003 (ip), vehicle: saline with Tween-80) was 103 % of control; the T/C (dose: 300.0 mg/kg/injection, schedule: Q01DX009 (ip), vehicle: saline with Tween-80) was 110 % of control. Further, the T/C reads like this: (dose: 400.0 mg/kg/injection, schedule: Q01DX001 (ip), vehicle: saline with Tween-80) 106 % of control; (dose: 400.0 mg/kg/injection, schedule: Q04DX003 (ip), vehicle: saline with Tween-80) 108 % of control.
For the compound `C=CCN(CC=C)P(=O)(N1CC1C)N1CC1C` (configuration not stated), the T/C is, setting by setting: (dose: 1.0 mg/kg/injection, schedule: Q01DX009 (ip), vehicle: saline) 124 % of control; (dose: 3.0 mg/kg/injection, schedule: Q01DX009 (ip), vehicle: saline) 172 % of control.
With `CCOC(CCl)(OCC)OCC`, the T/C runs as follows: under setting [4], 97 % of control; under setting [5], 90 % of control.
Take `CCCC/C=N\NC(=S)NCCCCCCCCCCCCCCCCCC`: the T/C is 94 % of control (dose: 200.0 mg/kg/injection, schedule: Q01DX Z (ip), vehicle: saline); 103 % of control (dose: 300.0 mg/kg/injection, schedule: Q01DX Z (ip), vehicle: saline); 95 % of control (dose: 450.0 mg/kg/injection, schedule: Q01DX Z (ip), vehicle: saline); 90 % of control (dose: 675.0 mg/kg/injection, schedule: Q01DX Z (ip), vehicle: saline).
Consider `O=C(CI)Nc1ccc(Br)cc1`, for which the T/C (dose: 6.25 mg/kg/injection, schedule: Q01DX009 (ip), vehicle: Klucel (hydroxypropylcellulose) (HPC)) was 86 % of control; the T/C (dose: 12.5 mg/kg/injection, schedule: Q01DX009 (ip), vehicle: Klucel (hydroxypropylcellulose) (HPC)) was 91 % of control; the T/C (dose: 25.0 mg/kg/injection, schedule: Q01DX009 (ip), vehicle: Klucel (hydroxypropylcellulose) (HPC)) is 86 % of control; the T/C (dose: 35.0 mg/kg/injection, schedule: Q01DX009 (ip), vehicle: Klucel (hydroxypropylcellulose) (HPC)) was 98 % of control.
On to `CCCCCCCCOC(=O)c1[nH]cnc1/N=N/N(C)C1CCCCC1`, for which the T/C by setting is: (dose: 100.0 mg/kg/injection, schedule: Q01DX001 (ip), vehicle: other) 93 % of control; (dose: 200.0 mg/kg/injection, schedule: Q01DX001 (ip), vehicle: other) 96 % of control; (dose: 400.0 mg/kg/injection, schedule: Q01DX001 (ip), vehicle: other) 91 % of control.
With `CCNP(=S)(SCC)SCC`, the T/C under setting [4] was 96 % of control; the T/C under setting [5] is 89 % of control; the T/C (dose: 400.0 mg/kg/injection, schedule: Q04DX002 (ip), vehicle: saline with Tween-80) was 101 % of control.
Consider `O=C1C2C3CCC(C4OCCO4)(O3)C2C(=O)N1Cc1ccccc1` (configuration not stated), for which the T/C (dose: 100.0 mg/kg/injection, schedule: Q04DX002 (ip), vehicle: Klucel (hydroxypropylcellulose) (HPC)) is 107 % of control; the T/C (dose: 200.0 mg/kg/injection, schedule: Q04DX002 (ip), vehicle: Klucel (hydroxypropylcellulose) (HPC)) was 103 % of control; the T/C (dose: 400.0 mg/kg/injection, schedule: Q04DX002 (ip), vehicle: Klucel (hydroxypropylcellulose) (HPC)) was 96 % of control.
Take `CC(=O)Nc1ccccc1Cl`: the T/C was 100 % of control (dose: 100.0 mg/kg/injection, schedule: Q01DX009 (ip), vehicle: Klucel (hydroxypropylcellulose) (HPC)); 105 % of control (dose: 200.0 mg/kg/injection, schedule: Q01DX009 (ip), vehicle: Klucel (hydroxypropylcellulose) (HPC)); 108 % of control (dose: 400.0 mg/kg/injection, schedule: Q01DX009 (ip), vehicle: Klucel (hydroxypropylcellulose) (HPC)).
On to `COC(=O)C(CCCN(C)C)(CCCN(C)C)c1cccc2ccccc12`, for which, under setting [3], the T/C was 96 % of control.
As for `N#Cc1ccccc1NN=Nc1ccccc1-c1nc(N)nc(N)n1`, the T/C is, setting by setting: (dose: 25.0 mg/kg/injection, schedule: Q04DX003 (ip), vehicle: saline) 97 % of control; (dose: 50.0 mg/kg/injection, schedule: Q04DX003 (ip), vehicle: saline) 103 % of control.
On to `CCN(CC)c1ccc(C(=O)c2ccc(N(CC)CC)cc2)cc1`, for which the T/C is, setting by setting: (dose: 15.0 mg/kg/injection, schedule: Q01DX Z (ip), vehicle: carboxymethylcellulose (CMC)) 88 % of control; (dose: 30.0 mg/kg/injection, schedule: Q01DX Z (ip), vehicle: carboxymethylcellulose (CMC)) 92 % of control; (dose: 60.0 mg/kg/injection, schedule: Q01DX Z (ip), vehicle: carboxymethylcellulose (CMC)) 92 % of control and 95 % of control; (dose: 120.0 mg/kg/injection, schedule: Q01DX Z (ip), vehicle: carboxymethylcellulose (CMC)) 94 % of control and 100 % of control; (dose: 240.0 mg/kg/injection, schedule: Q01DX Z (ip), vehicle: carboxymethylcellulose (CMC)) 100 % of control; (dose: 480.0 mg/kg/injection, schedule: Q01DX Z (ip), vehicle: carboxymethylcellulose (CMC)) 118 % of control.
Turning to `COc1ccc(NC(=O)CC(C)(C)C(=O)O)cc1`, the T/C runs as follows: (dose: 100.0 mg/kg/injection, schedule: Q01DX009 (ip), vehicle: saline with Tween-80) 94 % of control; (dose: 200.0 mg/kg/injection, schedule: Q01DX009 (ip), vehicle: saline with Tween-80) 92 % of control; (dose: 400.0 mg/kg/injection, schedule: Q01DX009 (ip), vehicle: saline with Tween-80) 90 % of control.
Consider `Cc1cccc(OCC(O)CN2CCCCC2)c1` (configuration not stated), for which the T/C is 94 % of control under setting [6]; 102 % of control and 105 % of control under setting [7]; 120 % of control under setting [8].
For `O=c1[nH]nc(CC(Br)c2ccccc2)o1` (configuration not stated), the T/C is, setting by setting: (dose: 100.0 mg/kg/injection, schedule: Q01DX001 (ip), vehicle: saline) 91 % of control; under setting [1], 103 % of control; (dose: 200.0 mg/kg/injection, schedule: Q01DX001 (ip), vehicle: saline) 90 % of control; under setting [2], 93 % of control; (dose: 400.0 mg/kg/injection, schedule: Q01DX001 (ip), vehicle: saline) 99 % of control; (dose: 400.0 mg/kg/injection, schedule: Q04DX003 (ip), vehicle: saline) 105 % of control.
On to `ClCCCNCc1ccccc1`, for which the T/C is, setting by setting: under setting [6], 111 % of control; under setting [7], 97 % of control; under setting [8], 97 % of control; under setting [1], 94 % of control.
